Laboratory results as given in US12454675B2, “Method of increasing protein yield in mammalian cells in serum-free culture medium” (AGENCY FOR SCIENCE, TECHNOLOGY AND RESEARCH, priority 2016, dated 2025).

Columns and labels:
[1] = system: CHO cell culture; conditions: 3.6 g/l of monosaccharides; cited from earlier work
[2] = system: CHO-K1 cells; assay: Adaptation of CHO-K1 cells into HyQ PF-CHO media with different disaccharides; format: cell-based, Chinese Hamster; conditions: 3.6 g/l sugar, seeding 0.3×10^6 cells/ml, 74 days
Method: Viable cell density and culture viability were determined by Trypan blue dye exclusion method using Vi-Cell XR Cell Viability Analyzer (Beckman Coulter, Brea, CA) according to manufacturer's instructions. For biochemical and other cell culture parameter analyses, 1 ml of culture sample was centrifuged at 8000 g for 10 minutes to obtain clarified supernatant. […] At each passage during the adaptation process, viable cell density and culture viability before passage and after inoculation into fresh media were determined. […] Osmolality of these culture media were determined to be between 308 and 324 mOsm/kg, well within the range for optimal mammalian cell culture. The viable cell densities and culture viabilities of these cultures at the beginning and end of each passage over a period of 74 days are shown in FIG. 1. […] However, culture viabilities and viable cell densities of the maltose culture started to pick up on Day 14. Proliferation of the cells in maltose culture then maintained over the period of the time studied, while those in the other disaccharides were terminated on Day 31 due to the lack of cell growth and depressed culture viabilities.

[3] = system: CHO-DG44 cells; assay: Disaccharides to support growth of CHO-DG44 cells in HyQ PF-CHO; format: cell-based, Chinese Hamster; conditions: 10 g/l sugar, 22 days
From the text: (§1) In (A) CHO-K1 cells were cultivated in a serum-free protein-free cell culture medium, HyQ PF-CHO, with 3.6 g/l of different sugars (maltose, sucrose, lactose, trehalose or glucose) as carbohydrate source. The viable cell densities (lined markers) and culture viabilities (marker only) of these cultures at the beginning and end of each passage over a period of 74 days were plotted. Cultures with sucrose, lactose or trehalose were terminated on Day 31 due to the decreased culture viabilities and reduced viable cell densities. The experiment was repeated with a seeding cell density of 1.0×10^6 cells/ml to obtain similar results. In (B) CHO-DG44 cells were cultivated with a seeding cell density of 1.0×10^6 cells/ml in a serum-free protein-free cell culture medium, HyQ PF-CHO, with 10 g/l of different sugars (maltose, sucrose, lactose, trehalose or glucose) as carbohydrate source. The viable cell densities (lined markers) and cell viabilities (marker only) of these cultures at the beginning and end of each passage over a period of 22 days were plotted. In (C) HEK293 cells were cultivated with a seeding cell density of 1.0×10^6 cells/ml in a protein-free chemically defined cell culture medium, PFCDM, with 10 g/l of different sugars (maltose, sucrose, lactose, trehalose or glucose) as carbohydrate source. The viable cell densities (lined markers) and cell viabilities (marker only) of these cultures at the beginning and end of each passage over a period of 22 days were plotted. Cultures with sucrose, lactose or trehalose were terminated on Day 14 due to the decreased culture viabilities and reduced viable cell densities.
To determine whether the same approach can be applied on other CHO cell lines, the use of disaccharides to support the growth of CHO-DG44 cells was evaluated. These cells were cultivated with 10 g/l of maltose, sucrose, lactose, trehalose or glucose as energy source in a serum-free protein-free cell culture medium HyQ PF-CHO. The viable cell densities and culture viabilities of these cultures at the beginning and end of each passage over a period of 22 days are shown in FIG. 1B.

[4] = system: HEK293 cells; assay: Disaccharides to support growth of HEK293 cells in PFCDM; format: cell-based; conditions: 10 g/l sugar, seeding 1.0×10^6 cells/ml, 22 days
From the text: as §1

O=C(CO)[C@@H](O)[C@H](O)[C@H](O)CO [fructose]
specific consumption rate [1]: 0.21 ng/cell/day

O=C[C@H](O)[C@@H](O)[C@@H](O)[C@H](O)CO [galactose]
specific consumption rate [1]: 0.21 ng/cell/day

OC[C@H]1O[C@@H](O[C@H]2[C@H](O)[C@@H](O)C(O)O[C@@H]2CO)[C@H](O)[C@@H](O)[C@H]1O (some centres unmarked) [lactose]
proliferation in serum-free protein-free culture medium with the sugar as sugar source [2]: not | proliferation in serum-free protein-free culture medium with the sugar as sugar source [3]: not | proliferation in serum-free culture medium with the sugar as sugar source [4]: not

OC[C@H]1O[C@@](CO)(O[C@H]2O[C@H](CO)[C@@H](O)[C@H](O)[C@H]2O)[C@@H](O)[C@@H]1O [sucrose]
proliferation in serum-free protein-free culture medium with the sugar as sugar source [2]: not | proliferation in serum-free protein-free culture medium with the sugar as sugar source [3]: not | proliferation in serum-free culture medium with the sugar as sugar source [4]: not

OC[C@H]1O[C@H](O[C@H]2O[C@H](CO)[C@@H](O)[C@H](O)[C@H]2O)[C@H](O)[C@@H](O)[C@@H]1O [trehalose]
proliferation in serum-free protein-free culture medium with the sugar as sugar source [2]: not | proliferation in serum-free protein-free culture medium with the sugar as sugar source [3]: not | proliferation in serum-free culture medium with the sugar as sugar source [4]: not
